Measured values published in US20140135272A1, “NOVEL ZINC FINGER-LIKE PEPTIDE COMPOSITIONS AS POTENT AGENTS IN CANCER PREVENTION AND TREATMENT” (priority 2011, published 2014).
“Also recorded” adds a separate entry of the source. Square brackets hold non-standard residues; d marks the D form. Ends that are not written are not given here. pS = N[C@@H](COP(=O)(O)O)C(=O)O

Key:
Format in all cases: in vivo, nude mice
[1] = test system: BCC cells; assay: Example 2: peptide pre-injection plus boost injection, BCC cell inoculation, tumor volumes; conditions: peptide 2 mM, 100 μl i.v. per week for 3 weeks before BCC inoculation; boost per week for 3 weeks 2 months later; vs H2O control
Protocol: (§1) In the following examples, 8-week nude mice were used as host subjects to perform in vivo experiments. The nude mice were placed in room temperature and suitable humidity, and supplied with sterile water and standard food for 2 consecutive weeks before performing experiments. Then, the nude mice were injected with zinc finger-like peptide and tumor cells. The detailed processes for the experiments are described as follows.
(§2) First, manually synthesized zinc finger-like peptide (Genemed Synthesis Inc., San Antonio, Tex., USA) was resuspended in degassed purified water to obtain 1-5 mM of zinc finger-like peptide solution (100 μl). Herein, the solution for suspending the zinc finger-like peptide is not particularly limited. Preferably, the zinc finger-like peptide is resuspended in degassed purified water, in order to prevent the self-polymerization of the zinc finger-like peptide and loss its ability to inhibit tumor cell growth.
(§3) In the present experimental group, zinc finger-like peptide with sequence shown in SEQ ID NO: 1 was injected into nude mice.
Nude mice were injected with an intravenous injection of peptide (2 mM, 100 μl PBS) via tail veins per week for 3 consecutive weeks, followed by inoculating BCC cells (2 million cells/100 μl PBS) at both the right and left flanks. 2 months later, boost injection of peptide was carried out per week for 3 consecutive weeks. […]

[2] = test system: basal cell carcinoma (BCC) cells; assay: Example 1: peptide pre-injection, then basal cell carcinoma (BCC) cell inoculation, tumor volumes; conditions: peptide 2 mM, 100 μl PBS i.v. tail vein per week for 3 weeks before BCC inoculation at both flanks; vs PBS control
Protocol: as §1, §2
Herein, zinc finger-like peptide with sequence shown in SEQ ID NO: 2 was injected into nude mice.
In particularly, nude mice were injected with an intravenous injection of peptide (2 mM, 100 μl phosphate-buffered saline or PBS) via tail veins per week for 3 consecutive weeks, followed by inoculating basal cell carcinoma (BCC) cells (2 million cells/100 μl PBS) at both the right and left flanks. […]

[3] = test system: breast carcinoma MDA-MB-435s; assay: Example 8: breast carcinoma MDA-MB-435s inoculated first, peptide treatment from the 70th day, tumor volumes; conditions: peptide 2 mM, 100 μl per week for 4 weeks from the 70th day
Protocol: as §1, §2
In the present experimental group, zinc finger-like peptide with sequence shown in SEQ ID NO: 2 was injected subcutaneously into nude mice.
Nude mice received an injection of breast carcinoma MDA-MB-435s (2 million cells/100 μl PBS) […] at both the right and left flanks on the […] day, followed by injecting peptide (2 mM, 100 μl) per week for 4 consecutive weeks from the 70th day. The tumor volumes (mm^3) were observed daily during the whole experiment.
The process of the present control group was the same as that of the experimental group, except that the zinc finger-like peptide of the experimental group was substituted with PBS buffer (100 μl) in the present control group.

[4] = test system: malignant melanoma B 16F10; assay: Example 4: peptide variants pre-injected, then malignant melanoma B16F10 inoculation, tumor volumes and death; conditions: peptide 2 mM, 100 μl i.v. per week for 2 weeks before B16F10 inoculation
Protocol: as §1, §2
Nude mice received an intravenous injection of peptide (2 mM, 100 μl) via tail veins per week for 2 consecutive weeks, followed by inoculating malignant melanoma B 16F10 (2 million cells/100 μl PBS) at both the right and left flanks. The tumor volumes (mm^3) were observed daily during the whole experiment.
as §3
In the present experimental group, zinc finger-like peptide with sequence shown in SEQ ID NO: 1, in which the fifth amino acid, serine was phosphorylated, and injected into nude mice.
In the present experimental group, zinc finger-like peptide with sequence shown in SEQ ID NO: 6 was injected into nude mice.
In the present experimental group, zinc finger-like peptide with sequence shown in SEQ ID NO: 6, in which the fourth amino acid serine was phosphorylated, and injected nude mice.
In the control group, H2O (100 μl) was injected into nude mice.

[5] = test system: BCC cells; assay: Example 5: expression plasmid injection, then BCC cell inoculation, tumor volumes; conditions: expression plasmid 100 μl via tail veins per week for 2 weeks before BCC inoculation; vs vector containing EGFP only
Protocol: as §1
The cDNA of zinc finger-like peptide was inserted into vector pCR3.1/CMV to form a zinc finger-like peptide expression plasmid, wherein the zinc finger-like peptide was connected to the c-terminal of EGFP.
In the present experimental group, the zinc finger-like peptide expression plasmid containing DNA sequence for expressing the zinc finger-like peptide (SEQ ID NO: 4) (100 μl) was injected into nude mice via tail veins per week for 2 consecutive weeks, to express zinc finger-like peptide. Then, BCC cells (2 million cells/100 μl medium) were inoculated into nude mice at both the right and left flanks. The tumor volumes (mm^3) were observed daily during the whole experiment.
The process of the present experimental group was the same as that of the experimental group 1, except that the DNA sequence shown in SEQ ID NO: 4 was substituted with DNA sequence shown in SEQ ID NO: 7. […]

Molecule: MSSRRSSGCKYCEQD [SEQ ID NO: 5, zinc finger-like peptide with serine mutation]
- tumor growth (tumor volumes) [1]: the therapeutic effect of the zinc finger-like peptide is decreased; also recorded: still has better treatment effect than H2O

Molecule: MSSRRSSSCKYCEQDFRAHTQKNAATPFLAN [SEQ ID NO: 2, zinc finger-like peptide, manually synthesized]
- tumor growth (tumor volumes) [2]: inhibited the growth of skin cancer cell on nude mice
- day from which tumor volumes were significantly increased ([3]; MDA-MB-435s inoculated first): 89 days
- maximum tumor volumes ([3]; observed on the 100th day): 1000 mm^3
- tumor volumes reduced to ([3]; on the 113th day, after the maximum): 50%
- tumor cell growth terminated compared to the control group ([3]; vs PBS control group): 75%

Molecule: RSSSCK [SEQ ID NO: 6, zinc finger-like peptide, called cysteine deletion]
- day on which the nude mice died [4]: 31 days

Molecule: SEQ ID NO: 1, in which the fifth amino acid, serine was phosphorylated: SEQ ID NO: 1 (RRSSSCK) with the fifth amino acid, serine, phosphorylated (RRSS[pS]CK)
- day on which the nude mice died [4]: 35 days

Molecule: SEQ ID NO: 6, in which the fourth amino acid serine was phosphorylated: SEQ ID NO: 6 (RSSSCK) with the fourth amino acid serine phosphorylated (RSS[pS]CK)
- day on which the nude mice died [4]: 35 days

B1: atgagcagca gaaggtcgtc ttcttgtaaa tattgtgaac aggacttccg agcacacaca cagaagaatg cggccacacc cttcctagcc aac (nucleic acid)
chain: ATGAGCAGCAGAAGGTCGTCTTCTTGTAAATATTGTGAACAGGACTTCCGAGCACACACACAGAAGAATGCGGCCACACCCTTCCTAGCCAAC
modifications: expressed or natural sequence
- tumor growth (tumor volumes) [5]: the growth of tumor cells can be inhibited and the volume thereof can be reduced

B2: atgagcagca gaaggtcgtc tggctgtaaa tattgtgaac aggacttccg agcacacaca cagaagaatg cggccacacc cttcctagcc aac (nucleic acid)
chain: ATGAGCAGCAGAAGGTCGTCTGGCTGTAAATATTGTGAACAGGACTTCCGAGCACACACACAGAAGAATGCGGCCACACCCTTCCTAGCCAAC
modifications: chemistry not given here
- tumor growth (tumor volumes) [5]: can slightly inhibit the growth of the tumor cells
